# Biological target: Nav 1.7 (Homo sapiens (Human), UniProt Q15858)
# Experiment: Nav 1.7 in vitro PX assay (PatchXpress whole cell voltage clamp);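 further: holding potential set for 20 to 50% inactivation, sodium current evoked by a 20 ms step to −10 mV, peak current inhibition read after compound exposure, 3–5 cells per concentration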
# Assay type: cell-based
# Settings: not given
# Chain of Nav 1.7 (Q15858 whole entry): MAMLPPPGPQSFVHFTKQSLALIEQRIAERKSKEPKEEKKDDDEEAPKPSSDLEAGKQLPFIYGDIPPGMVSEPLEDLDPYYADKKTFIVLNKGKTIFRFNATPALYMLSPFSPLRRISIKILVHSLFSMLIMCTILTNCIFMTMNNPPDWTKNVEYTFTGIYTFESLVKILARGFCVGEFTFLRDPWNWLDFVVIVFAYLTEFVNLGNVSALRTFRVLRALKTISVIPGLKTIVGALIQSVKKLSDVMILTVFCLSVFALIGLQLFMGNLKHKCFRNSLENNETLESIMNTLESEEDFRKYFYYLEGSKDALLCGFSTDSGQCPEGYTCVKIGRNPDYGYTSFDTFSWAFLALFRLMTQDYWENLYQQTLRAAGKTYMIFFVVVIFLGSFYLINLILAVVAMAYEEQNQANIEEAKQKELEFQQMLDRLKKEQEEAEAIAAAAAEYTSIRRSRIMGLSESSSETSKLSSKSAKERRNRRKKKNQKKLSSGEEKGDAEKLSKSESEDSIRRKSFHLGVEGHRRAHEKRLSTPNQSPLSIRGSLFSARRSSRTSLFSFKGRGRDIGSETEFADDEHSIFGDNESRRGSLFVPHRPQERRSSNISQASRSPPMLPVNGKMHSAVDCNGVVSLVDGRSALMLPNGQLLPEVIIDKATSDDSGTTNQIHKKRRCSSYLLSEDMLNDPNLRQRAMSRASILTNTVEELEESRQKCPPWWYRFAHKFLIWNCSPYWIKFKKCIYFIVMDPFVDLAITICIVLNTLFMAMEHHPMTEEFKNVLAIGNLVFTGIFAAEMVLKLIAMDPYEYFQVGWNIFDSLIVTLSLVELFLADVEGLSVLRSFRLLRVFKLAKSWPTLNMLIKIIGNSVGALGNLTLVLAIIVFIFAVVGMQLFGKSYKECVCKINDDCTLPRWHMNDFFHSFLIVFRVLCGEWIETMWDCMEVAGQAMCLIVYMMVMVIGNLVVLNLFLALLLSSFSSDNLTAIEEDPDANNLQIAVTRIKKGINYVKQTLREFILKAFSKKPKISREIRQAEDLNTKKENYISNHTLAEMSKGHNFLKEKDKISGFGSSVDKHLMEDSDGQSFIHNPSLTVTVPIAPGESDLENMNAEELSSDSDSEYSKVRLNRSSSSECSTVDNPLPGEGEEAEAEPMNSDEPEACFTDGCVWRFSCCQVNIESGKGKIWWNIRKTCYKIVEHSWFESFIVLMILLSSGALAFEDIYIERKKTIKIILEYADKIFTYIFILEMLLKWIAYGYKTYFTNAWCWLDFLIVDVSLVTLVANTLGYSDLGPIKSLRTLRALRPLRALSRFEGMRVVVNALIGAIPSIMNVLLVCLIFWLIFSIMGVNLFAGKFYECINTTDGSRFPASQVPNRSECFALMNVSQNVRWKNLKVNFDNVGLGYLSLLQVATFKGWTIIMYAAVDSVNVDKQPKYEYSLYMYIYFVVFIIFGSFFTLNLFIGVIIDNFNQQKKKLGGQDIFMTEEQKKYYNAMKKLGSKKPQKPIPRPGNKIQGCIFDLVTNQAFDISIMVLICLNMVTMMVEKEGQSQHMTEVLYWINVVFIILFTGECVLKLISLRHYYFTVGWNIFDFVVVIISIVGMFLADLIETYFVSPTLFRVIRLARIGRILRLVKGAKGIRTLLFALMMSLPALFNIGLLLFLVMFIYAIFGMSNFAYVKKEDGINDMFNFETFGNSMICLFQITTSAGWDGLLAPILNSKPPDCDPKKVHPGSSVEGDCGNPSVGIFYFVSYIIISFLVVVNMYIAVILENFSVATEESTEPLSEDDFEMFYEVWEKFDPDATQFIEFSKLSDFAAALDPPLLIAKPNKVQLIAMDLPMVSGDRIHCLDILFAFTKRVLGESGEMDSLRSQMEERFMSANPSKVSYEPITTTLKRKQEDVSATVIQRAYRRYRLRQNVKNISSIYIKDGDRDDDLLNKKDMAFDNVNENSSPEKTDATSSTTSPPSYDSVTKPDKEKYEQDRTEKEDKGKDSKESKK
row,SMILES,IC50 [µM]
1,"COc1cc(-c2ccc(F)c(Cl)c2)c(Cl)cc1-c1ncnc2cc(S(=O)(=O)Nc3ncccn3)ccc12 [Example 329, 4-(2,3′-dichloro-4′-fluoro-5-methoxy-[1,1′-biphenyl]-4-yl)-N-(pyrimidin-2-yl)quinazoline-7-sulfonamide]",0.043

# Same assay, conditions: HEK 293 cells stably transfected with human Nav1.7; PatchXpress; partially inactivated state
row,SMILES,IC50 [µM]
1,"COc1cc(-c2cccc(F)c2)c(Cl)cc1-c1c(OC)ncc2cc(S(=O)(=O)Nc3ccon3)ccc12 [Example 401, 4-(2-CHLORO-3′-FLUORO-5-METHOXY-[1,1′-BIPHENYL]-4-YL)-N-(ISOXAZOL-3-YL)-3-METHOXYISOQUINOLINE-7-SULFONAMIDE]",0.613
2,"COc1cc(-c2cccc(F)c2)c(Cl)cc1-c1[nH]c(=O)cc2cc(S(=O)(=O)Nc3ccon3)ccc12 [Example 394, 1-(2-chloro-3′-fluoro-5-methoxy-[1,1′-biphenyl]-4-yl)-N-(isoxazol-3-yl)-3-oxo-2,3-dihydroisoquinoline-6-sulfonamide 2,2,2-trifluoroacetate]",0.041
3,"COc1cc(-c2cccc(F)c2)c(Cl)cc1-c1c(=O)[nH]cc2cc(S(=O)(=O)Nc3ccon3)ccc12 [Example 398, 4-(2-CHLORO-3′-FLUORO-5-METHOXY-[1,1′-BIPHENYL]-4-YL)-N-(ISOXAZOL-3-YL)-3-OXO-2,3-DIHYDROISOQUINOLINE-7-SULFONAMIDE]",0.027

# More lines, now with the values ahead:
row,IC50 [µM],SMILES
1,0.61,"CCOc1ccc(-c2cc(OC)c(-c3ncnc4cc(S(=O)(=O)Nc5ccon5)ccc34)cc2F)cc1C [Example 535, 4-(4′-ethoxy-2-fluoro-5-methoxy-3′-methyl-4-biphenylyl)-N-3-isoxazolyl-7-quinazolinesulfonamide]"
2,0.035,"COc1cc(F)cc(-c2cc(OC)c(-c3ncnc4cc(S(=O)(=O)Nc5ccon5)ccc34)cc2C)c1 [Example 560, 4-(3′-fluoro-5,5′-dimethoxy-2-methyl-4-biphenylyl)-N-3-isoxazolyl-7-quinazolinesulfonamide]"
3,0.034,"COc1cc(-c2ccc(F)c(C3CC3)c2)c(C)cc1-c1ncnc2cc(S(=O)(=O)Nc3ccon3)ccc12 [Example 554, 4-(3′-cyclopropyl-4′-fluoro-5-methoxy-2-methyl-4-biphenylyl)-N-3-isoxazolyl-7-quinazolinesulfonamide]"
4,0.028,"COc1cc(-c2cccc(F)c2)c(Cl)cc1-c1c(N)nnc2cc(S(=O)(=O)Nc3ccon3)ccc12 [Example 446, 3-AMINO-4-(2-CHLORO-3′-FLUORO-5-METHOXY-[1,1′-BIPHENYL]-4-YL)-N-(ISOXAZOL-3-YL)CINNOLINE-7-SULFONAMIDE]"
5,0.237,"COc1cc(-c2ccc(C(F)(F)F)cc2)c(F)cc1-c1nccc2cc(S(=O)(=O)Nc3ccon3)ccc12 [Example 539, 1-(2-fluoro-5-methoxy-4′-(trifluoromethyl)-4-biphenylyl)-N-3-isoxazolyl-6-isoquinolinesulfonamide]"
6,0.036,"COc1cc(Cl)cc(-c2cc(OC)c(-c3ncnc4cc(S(=O)(=O)Nc5ccon5)ccc34)cc2F)c1 [Example 537, 4-(3′-chloro-2-fluoro-5,5′-dimethoxy-4-biphenylyl)-N-3-isoxazolyl-7-quinazolinesulfonamide]"
7,0.086,"COc1cc(-c2cc(F)cc(F)c2)c(Cl)cc1-c1ncnc2cc(S(=O)(=O)Nc3ncccn3)ccc12 [Example 435, 4-(2-CHLORO-3′,5′-DIFLUORO-5-METHOXY-[1,1′-BIPHENYL]-4-YL)-N-(PYRIMIDIN-2-YL)QUINAZOLINE-7-SULFONAMIDE]"
8,0.169,"COc1cc(-c2ccc3c(c2)CCC3)c(C)cc1-c1ncnc2cc(S(=O)(=O)Nc3ccon3)ccc12 [Example 566, 4-(4-(2,3-dihydro-1H-inden-5-yl)-2-methoxy-5-methylphenyl)-N-3-isoxazolyl-7-quinazolinesulfonamide]"
9,0.107,"COc1cc(-c2cccc(F)c2)c(Cl)cc1-c1c(OC)nnc2cc(S(=O)(=O)Nc3ccon3)ccc12 [Example 445, 4-(2-CHLORO-3′-FLUORO-5-METHOXY-[1,1′-BIPHENYL]-4-YL)-N-(ISOXAZOL-3-YL)-3-METHOXYCINNOLINE-7-SULFONAMIDE]"

# Same assay, conditions: PatchXpress (PX)
row,IC50 [µM],SMILES
1,0.0326,"COc1cc(-c2cccc(F)c2)c(Cl)cc1-c1nnc(OC)c2cc(S(=O)(=O)Nc3ccon3)ccc12 [Example 55, 1-(2-CHLORO-3′-FLUORO-5-METHOXY-[1,1′-BIPHENYL]-4-YL)-N-(ISOXAZOL-3-YL)-4-METHOXYPHTHALAZINE-6-SULFONAMIDE]"
2,0.187,"COc1cc(Cl)c(C)cc1-c1nccc2cc(S(=O)(=O)Nc3ccon3)ccc12 [Example 248, 1-(4-chloro-2-methoxy-5-methylphenyl)-N-3-isoxazolyl-6-isoquinolinesulfonamide]"
3,0.0181,"COc1ccc(Cl)cc1-c1cc(OC)c(-c2ncnc3cc(S(=O)(=O)Nc4ccon4)ccc23)cc1C [Example 266, 4-(5′-chloro-2′,5-dimethoxy-2-methyl-4-biphenylyl)-N-3-isoxazolyl-7-quinazolinesulfonamide]"
4,0.0299,"COc1cc(-c2cc(F)cc(Cl)c2)c(C)cc1-c1ncnc2cc(S(=O)(=O)Nc3ccon3)ccc12 [Example 270, 4-(3′-chloro-5′-fluoro-5-methoxy-2-methyl-4-biphenylyl)-N-3-isoxazolyl-7-quinazolinesulfonamide]"
5,0.0319,"COc1cc(-c2cc(F)cc(F)c2)c(C)cc1-c1nccc2cc(S(=O)(=O)Nc3ccon3)ccc12 [Example 272, 1-(3′,5′-difluoro-5-methoxy-2-methyl-4-biphenylyl)-N-3-isoxazolyl-6-isoquinolinesulfonamide]"

# Same assay, conditions: in-vitro Nav 1.7 PX (PatchXpress)
row,IC50 [µM],SMILES
1,0.04,"COc1cc(-c2cc(C)cc(F)c2)c(Cl)cc1-c1ncnc2cc(S(=O)(=O)Nc3ccon3)ccc12 [Example 309, 4-(2-chloro-3′-fluoro-5-methoxy-5′-methyl-4-biphenylyl)-N-3-isoxazolyl-7-quinazolinesulfonamide]"
2,0.058,"COc1cc(-c2cc(F)cc(Cl)c2)c(C)cc1-c1nccc2cc(S(=O)(=O)Nc3ccon3)ccc12 [Example 285, 1-(3′-chloro-5′-fluoro-5-methoxy-2-methyl-4-biphenylyl)-N-3-isoxazolyl-6-isoquinolinesulfonamide]"
3,0.063,"COc1cc(-c2cc(F)cnc2OC)c(C)cc1-c1nccc2cc(S(=O)(=O)Nc3ccon3)ccc12 [Example 279, 1-(4-(5-fluoro-2-methoxy-3-pyridinyl)-2-methoxy-5-methylphenyl)-N-3-isoxazolyl-6-isoquinolinesulfonamide]"
4,0.111,"COc1cc(-c2ccc(C)c(Cl)c2)ccc1-c1nccc2cc(S(=O)(=O)Nc3ccon3)ccc12 [Example 287, 1-(3′-chloro-3-methoxy-4′-methyl-4-biphenylyl)-N-3-isoxazolyl-6-isoquinolinesulfonamide]"
5,0.188,"COc1cc(-c2ccc(Cl)c(F)c2)c(C)cc1-c1nccc2cc(S(=O)(=O)Nc3ccon3)ccc12 [Example 286, 1-(4′-chloro-3′-fluoro-5-methoxy-2-methyl-4-biphenylyl)-N-3-isoxazolyl-6-isoquinolinesulfonamide]"
6,0.137,"COc1cc(-c2ccc(Cl)c(F)c2)ccc1-c1nccc2cc(S(=O)(=O)Nc3ccon3)ccc12 [Example 290, 1-(4′-chloro-3′-fluoro-3-methoxy-4-biphenylyl)-N-3-isoxazolyl-6-isoquinolinesulfonamide]"
7,0.091,COc1nc(-c2cc(F)cc(F)c2)c(C#N)cc1-c1cccc2cc(S(=O)(=O)Nc3ccncn3)ccc12 [Example 64]

# Source: patent US9776995B2, “Bicyclic sulfonamide compounds as sodium channel inhibitors” (AMGEN INC., priority 2013, dated 2017)
